Experimental data taken from US20060287247A1, “Halogen-substituted thienyl compounds” (priority 2001, published 2006).

How the values were obtained:
[1] = system: S. pneumoniae ATCC 49619; test: NCCLS broth microdilution MIC; assay type: cell-based, Streptococcus pneumoniae; settings: F = S. pneumoniae ATCC 49619
[2] = system: E. faecalis ATCC 29212; test: NCCLS broth microdilution MIC; assay type: cell-based, Enterococcus faecalis; settings: B = E. faecalis ATCC 29212
[3] = system: E. coli ATCC 25922; test: NCCLS broth microdilution MIC; assay type: cell-based; settings: D = E. coli ATCC 25922
[4] = system: B. cereus ATCC 11778; test: NCCLS broth microdilution MIC; assay type: cell-based, Bacillus cereus; settings: C = B. cereus ATCC 11778
[5] = system: S. aureus ATCC 29213; test: NCCLS broth microdilution MIC; assay type: cell-based, Staphylococcus aureus; settings: A = S. aureus ATCC 29213
[6] = system: 5′-AAAAAGTACAAAAA-3′; assay type: binding; settings: DNA sequence 5′-AAAAAGTACAAAAA-3′; pH 7.0, 22° C.
Description: (§1) A number of compounds according to this invention were screened for their ability to bind to three DNA sites, using DNase I footprinting. Generally, the procedure described in Dervan, WO 98/50582 (1998), was followed.
(§2) A plasmid was prepared by hybridizing two sets of 5′-phosphorylated complementary oligonucleotides, one set being
(§3) The target sites and their complements are identified in bold underline.
(§4) The resulting duplexes were ligated to the large pUC19 AvaI/SalI restriction fragment. The 3′-P32 end-labeled EcoRI/PvuII fragment was prepared by digesting the plasmid with EcoRI and PvuII with simultaneous fill-in using Sequenase v. 2.0, [alpha-P32]-deoxyadenosine-5′-triphosphate, and [alpha-P32]-thymidine-5′-triphosphate, and isolating the cloned fragment by nondenaturing gel electrophoresis. Standard methods were used for all DNA manipulations, including A and G sequencing. See, e.g., Maxam et al., Methods Enzymol., 1980, 65, 499-560; Iverson et al., Methods Enzymol., 1987, 15, 7823-7830; and Sambrook et al., 1989, Molecular Cloning, 2nd ed., Cold Spring Harbor Laboratory Press: Cold Spring Harbor, N.Y.
(§5) Quantitative DNase I footprint titration experiments were carried out as described previously (Dervan, WO 98/50582, 1998, “Dervan '582”) with the following changes. All reactions were carried out in a total volume of 400 μL, with polyamide stock solution or water added to 15,000 cpm radiolabeled restriction fragment affording final solution conditions of 10 mM Tris.HCl, 10 mM KCl, 10 mM MgCl2, 5 mM CaCl2, pH 7.0 and 0.01 nM, 0.1 nM, 1.0 nM, 10.0 nM polyamide or no polyamide for reference lanes. The polyamides were allowed to equilibrate at 22° C. for 16 hr. Footprinting reactions were initiated with addition of 10 μL of a DNase I stock solution (at the appropriate concentration to give ˜50% intact DNA) containing 1 mM DTT and allowed to proceed for 7 min at 22° C. The reactions were stopped, ethanol precipitated, resuspended in loading buffer, heat denatured, and placed on ice as described in Dervan '582. The reaction products were separated on a precast 8% polyacrylamide denaturing sequencing Castaway gel with 32 preformed wells from Stratagene in 1× TBE at 2000 V. Gels were dried according to the manufacturer's instructions and exposed to a storage phosphor screen (Molecular Dynamics). Quantitation and data analysis were carried out as described in Dervan '582.

[7] = system: 5′-AAAAAGACAAAAA-3′; assay type: binding; settings: DNA sequence 5′-AAAAAGACAAAAA-3′; pH 7.0, 22° C.
Description: as §1, §2, §3, §4, §5

[8] = system: 5′-AAAAAGCAAAAA-3′; assay type: binding; settings: DNA sequence 5′-AAAAAGCAAAAA-3′; pH 7.0, 22° C.
Description: as §1, §2, §3, §4, §5

[9] = system: C. albicans ATCC 38247; test: NCCLS broth microdilution MIC (antifungal); assay type: cell-based; settings: E = C. albicans ATCC 38247

Minimum Inhibitory Concentration (MIC) [1]: +++ (+++ = MIC ≦4)
Minimum Inhibitory Concentration (MIC) [2]: +++ (+++ = MIC ≦4)
Minimum Inhibitory Concentration (MIC) [3]: >32 µg/mL
Minimum Inhibitory Concentration (MIC) [4]: +++ (+++ = MIC ≦4)
Minimum Inhibitory Concentration (MIC) [5]: +++ (+++ = MIC ≦4)
Minimum Inhibitory Concentration (MIC) [9]: >32 µg/mL
Structure (SMILES): CN(C)CCCNC(=O)CCNC(=O)c1cc(NC(=O)c2cc(NC(=O)CCNC(=O)c3cc(NC(=O)c4cc(NC(=O)c5cc(Br)c(Br)s5)cn4C)cn3C)cn2C)cn1C [Id-1]
Equilibrium Association Constant (Ka) [6]: ≧1 × 10^11 M^−1
Equilibrium Association Constant (Ka) [7]: ≧1 × 10^11 M^−1
Equilibrium Association Constant (Ka) [8]: ≧1 × 10^11 M^−1
